The text below walks through data of patent US20250122218A1, “MODULATORS OF CYSTIC FIBROSIS TRANSMEMBRANE CONDUCTANCE REGULATOR” (Vertex Pharmaceuticals Incorporated, priority 2022, published 2025).

pEC50: −log10 of the molar value.

The target of the experiment is T1, CFTR in F508del/MF-HBE cells (Homo sapiens, UniProt P13569, DEL508-508).
T1 construct: human bronchial epithelial (HBE) cells derived from CF subjects heterozygous for F508del and a minimal function CFTR mutation; endogenous in cells; host or cells: primary human bronchial epithelial cells from CF subjects (F508del/MF-HBE)
T1 sequence (P13569 with tags, fused parts or gaps DEL508-508): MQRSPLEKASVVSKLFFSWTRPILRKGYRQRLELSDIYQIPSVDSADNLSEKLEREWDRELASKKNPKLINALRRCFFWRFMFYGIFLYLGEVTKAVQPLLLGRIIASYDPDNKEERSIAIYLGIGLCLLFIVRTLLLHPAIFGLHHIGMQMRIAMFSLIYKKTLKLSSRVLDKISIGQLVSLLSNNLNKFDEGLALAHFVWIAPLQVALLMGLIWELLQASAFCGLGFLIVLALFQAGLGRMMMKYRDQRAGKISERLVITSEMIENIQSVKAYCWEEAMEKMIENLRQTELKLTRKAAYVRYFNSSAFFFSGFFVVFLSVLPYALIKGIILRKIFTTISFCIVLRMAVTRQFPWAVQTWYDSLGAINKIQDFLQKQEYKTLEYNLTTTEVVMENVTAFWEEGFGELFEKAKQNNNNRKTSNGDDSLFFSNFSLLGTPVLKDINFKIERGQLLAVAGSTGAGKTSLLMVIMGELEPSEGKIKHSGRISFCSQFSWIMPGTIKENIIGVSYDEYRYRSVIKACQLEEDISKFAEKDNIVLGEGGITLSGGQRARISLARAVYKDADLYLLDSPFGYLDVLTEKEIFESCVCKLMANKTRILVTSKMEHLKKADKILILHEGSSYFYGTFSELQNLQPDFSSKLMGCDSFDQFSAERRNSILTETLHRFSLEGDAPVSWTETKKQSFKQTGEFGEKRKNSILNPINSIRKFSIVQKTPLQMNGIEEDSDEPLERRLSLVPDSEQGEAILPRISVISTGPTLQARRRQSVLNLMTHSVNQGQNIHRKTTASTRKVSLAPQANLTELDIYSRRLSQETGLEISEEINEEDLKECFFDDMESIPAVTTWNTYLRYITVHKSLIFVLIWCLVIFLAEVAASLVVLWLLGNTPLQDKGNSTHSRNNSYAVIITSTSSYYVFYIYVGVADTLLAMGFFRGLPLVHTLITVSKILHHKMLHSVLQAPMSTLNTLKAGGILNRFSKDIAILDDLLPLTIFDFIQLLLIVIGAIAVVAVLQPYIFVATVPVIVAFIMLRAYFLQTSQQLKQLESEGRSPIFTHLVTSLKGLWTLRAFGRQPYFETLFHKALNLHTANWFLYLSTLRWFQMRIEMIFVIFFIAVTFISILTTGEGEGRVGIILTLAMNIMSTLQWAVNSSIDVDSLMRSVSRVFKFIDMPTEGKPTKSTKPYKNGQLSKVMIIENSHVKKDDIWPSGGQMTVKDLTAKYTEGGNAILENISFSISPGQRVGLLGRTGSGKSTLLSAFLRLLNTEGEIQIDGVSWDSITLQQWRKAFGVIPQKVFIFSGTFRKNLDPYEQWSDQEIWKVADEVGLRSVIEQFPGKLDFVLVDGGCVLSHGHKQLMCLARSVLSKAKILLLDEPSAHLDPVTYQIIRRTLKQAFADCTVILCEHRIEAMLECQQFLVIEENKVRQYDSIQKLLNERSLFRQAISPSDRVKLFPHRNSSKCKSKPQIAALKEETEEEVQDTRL
The experiment in a line: Ussing chamber assay of CFTR-mediated short-circuit currents (identification of potentiator compounds). The class given is cell-based. Particulars: potentiator incubated 18-24 hours at 37° C. in combination with 10 μM corrector, in the presence of 20% human serum, CFTR-mediated ISC. Summed up:
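Short-circuit current was measured in Ussing chambers at 37° C, Vhold 0 mV, 30 μM apical amiloride. CFTR current was defined as the forskolin (20 μM) response relative to the current remaining after BPO/GlyH-101/inhibitor 172 (20 μM each). Before recording, cells had 18-24 h exposure to test potentiators with 10 μM corrector compound in 20% human serum.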
Broadly, the pEC50 is the negative decadic logarithm of the EC50, by convention in mol/L. As for `COc1cc(F)ccc1CN1CCCCC[C@](O)(C(F)(F)F)C2=NN=C(O2)c2nc(c(C(F)(F)F)cc2N)C1=O` [Compound 164, (6R)-17-amino-12-[(4-fluoro-2-methoxy-phenyl)methyl]-6-hydroxy-6,15-bis (trifluoromethyl)-19-oxa-3,4,12,18-tetrazatricyclo [12.3.1.12,5] nonadeca-1(18),2,4,14,1 6-pentaen-13-one], the pEC50 was > 6.30. The same measure for `Cc1cc(CN2CCCCC[C@](O)(C(F)(F)F)C3=NN=C(O3)c3nc(c(C(F)(F)F)cc3N)C2=O)ccc1OC(F)(F)F` [Compound 165]: > 6.30. As for `Nc1cc(C(F)(F)F)c2nc1-c1nnc(o1)[C@@](O)(C(F)(F)F)CCCCCN(Cc1cccc(-c3ccccc3)c1)C2=O` [Compound 166, (6R)-17-amino-6-hydroxy-12-[(3-phenylphenyl)methyl]-6,15-bis (trifluoromethyl)-19-oxa-3,4,12,18-tetrazatricyclo [12.3.1.12,5] nonadeca-1(18),2,4,14,1 6-pentaen-13-one], the negative-log EC50 (pEC50) was > 6.30.

For the molecule `Cc1cnc(CN2CCCCC[C@](O)(C(F)(F)F)C3=NN=C(O3)c3nc(c(C(F)(F)F)cc3N)C2=O)cn1` [Compound 167, (6R)-- 17-amino-6-hydroxy-12-[(5-methylpyrazin-2-yl)methyl]-6,15-bis (trifluoromethyl)-19-oxa-3,4,12,18-tetrazatricyclo [12.3.1.12,5] nonadeca-1(18),2,4,14,1 6-pentaen-13-one], the pEC50 is < 6.00. Under `CCCc1ccccc1CN1CCCCC[C@](O)(C(F)(F)F)C2=NN=C(O2)c2nc(c(C(F)(F)F)cc2N)C1=O` [Compound 168, (6R)-17-amino-6-hydroxy-12-[(2-propylphenyl)methyl]-6,15-bis (trifluoromethyl)-19-oxa-3,4,12,18-tetrazatricyclo [12.3.1.12,5] nonadeca-1(18),2,4,14,1 6-pentaen-13-one] stands > 6.30; under `Cc1cnc(CN2CCCCC[C@](O)(C(F)(F)F)C3=NN=C(O3)c3nc(c(C(F)(F)F)cc3N)C2=O)nc1` [Compound 169, (6R)-17-amino-6-hydroxy-12-[(5-methylpyrimidin-2-yl)methyl]-6,15-bis (trifluoromethyl)-19-oxa-3,4,12,18-tetrazatricyclo [12.3.1.12,5] nonadeca-1(18),2,4,14,1 6-pentaen-13-one], < 6.00; under `CC(C)(C)Cc1ccc(CN2CCCCC[C@](O)(C(F)(F)F)C3=NN=C(O3)c3nc(c(C(F)(F)F)cc3N)C2=O)cc1` [Compound 170, (6R)-17-amino-12-[[4-(2,2-dimethylpropyl)phenyl]methyl]-6-hydroxy-6,15-bis (trifluoromethyl)-19-oxa-3,4,12,18-tetrazatricyclo [12.3.1.12,5] nonadeca-1(18),2,4,14,1 6-pentaen-13-one], > 6.30. Consider `CC(C)(C)c1ncc(CN2CCCCC[C@](O)(C(F)(F)F)C3=NN=C(O3)c3nc(c(C(F)(F)F)cc3N)C2=O)cn1` [Compound 171, (6R)-17-amino-12-[(2-tert-butylpyrimidin-5-yl)methyl]-6-hydroxy-6,15-bis (trifluoromethyl)-19-oxa-3,4,12,18-tetrazatricyclo [12.3.1.12,5] nonadeca-1(18),2,4,14,1 6-pentaen-13-one], for which the pEC50 is > 6.30.

Turning to `CC(C)Oc1cccc(CN2CCCCC[C@](O)(C(F)(F)F)C3=NN=C(O3)c3nc(c(C(F)(F)F)cc3N)C2=O)c1` [Compound 172, (6R)-17-amino-6-hydroxy-12-[(3-isopropoxyphenyl)methyl]-6,15-bis (trifluoromethyl)-19-oxa-3,4,12,18-tetrazatricyclo [12.3.1.12,5] nonadeca-1(18),2,4,14,1 6-pentaen-13-one], the pEC50 was > 6.30. The same measure for `Nc1cc(C(F)(F)F)c2nc1-c1nnc(o1)[C@@](O)(C(F)(F)F)CCCCCN(Cc1ccc(-c3ccccc3)cc1)C2=O` [Compound 173, (6R)-17-amino-6-hydroxy-12-[(4-phenylphenyl)methyl]-6,15-bis (trifluoromethyl)-19-oxa-3,4,12,18-tetrazatricyclo [12.3.1.12,5] nonadeca-1(18),2,4,14,1 6-pentaen-13-one]: > 6.30.

For `CC1(C)CCCC[C@](O)(C(F)(F)F)C2=NN=C(O2)c2nc(c(C(F)(F)F)cc2N)C(=O)N1` [Compound 174, (6R)-17-amino-6-hydroxy-11,11-dimethyl-6,15-bis (trifluoromethyl)-19-oxa-3,4,12,18-tetrazatricyclo [12.3.1.12,5] nonadeca-1(18),2,4,14,1 6-pentaen-13-one], the pEC50 was > 6.30. As to `COc1ccc(CN2CCCCC[C@](O)(C(F)(F)F)C3=NN=C(O3)c3nc(c(C(F)(F)F)cc3N)C2=O)c(F)c1F` [Compound 175, (6R)-17-amino-12-[(2,3-difluoro-4-methoxy-phenyl)methyl]-6-hydroxy-6,15-bis (trifluoromethyl)-19-oxa-3,4,12,18-tetrazatricyclo [12.3.1.12,5] nonadeca-1(18),2,4,14,1 6-pentaen-13-one], the pEC50 is > 6.30.

Turning to `COc1cc(F)cc(CN2CCCCC[C@](O)(C(F)(F)F)C3=NN=C(O3)c3nc(c(C(F)(F)F)cc3N)C2=O)c1` [Compound 176, (6R)-17-amino-12-[(3-fluoro-5-methoxy-phenyl)methyl]-6-hydroxy-6,5-bis (trifluoromethyl)-19-oxa-3,4,12,18-tetrazatricyclo [12.3.1.12,5] nonadeca-1(18),2,4,14,1 6-pentaen-13-one], the pEC50 is > 6.30. `COc1ccc(CN2CCCCC[C@](O)(C(F)(F)F)C3=NN=C(O3)c3nc(c(C(F)(F)F)cc3N)C2=O)c(F)c1` [Compound 177, (6R)-17-amino-12-[(2-fluoro-4-methoxy-phenyl)methyl]-6-hydroxy-6,15-bis (trifluorom ethyl)-19-oxa-3,4,12,18-tetrazatricyclo [12.3.1.12,5] nonadeca-1(18),2,4,14,1 6-pentaen-13-one]: the pEC50 is > 6.30. Under `Nc1cc(C(F)(F)F)c2nc1-c1nnc(o1)[C@@](O)(C(F)(F)F)CCCCCN(Cc1cc(Cl)cc(OC(F)(F)F)c1)C2=O` [Compound 178, (6R)-17-amino-12-[[3-chloro-5-(trifluoromethoxy)phenyl]methyl]-6-hydroxy-6,15-bis (trifluoromethyl)-19-oxa-3,4,12,18-tetrazatricyclo [12.3.1.12,5] nonadeca-1(18),2,4,14,1 6-pentaen-13-one] stands > 6.30; under `Cc1cc(CN2CCCCC[C@](O)(C(F)(F)F)C3=NN=C(O3)c3nc(c(C(F)(F)F)cc3N)C2=O)cc(OC(F)(F)F)c1` [Compound 179, (6R)-17-amino-6-hydroxy-12-[[3-methyl-5-(trifluoromethoxy)phenyl]methyl]-6,15-bis (trifluoromethyl)-19-oxa-3,4,12,18-tetrazatricyclo [12.3.1.12,5] nonadeca-1(18),2,4,14,1 6-pentaen-13-one], > 6.30; under `Cc1c(CN2CCCCC[C@](O)(C(F)(F)F)C3=NN=C(O3)c3nc(c(C(F)(F)F)cc3N)C2=O)cccc1OC(F)(F)F` [Compound 180, (6R)-17-amino-6-hydroxy-12-[[2-methyl-3-(trifluoromethoxy)phenyl]methyl]-6,15-bis(trifluoromethyl)-19-oxa-3,4,12,18-tetrazatricyclo [12.3.1.12,5] nonadeca-1(18),2,4,14,1 6-pentaen-13-one], > 6.30.
